Source: US12543736B2, “Herbicidal compositions comprising mesotrione” (BASF SE, priority 2024, dated 2026)

How the values were obtained:
Format in all cases: in vivo
Digitaria sanguinalis = experiment: Example 2 post-emergence greenhouse trial, DIGSA; details: growth stage 12, 7 DAT
Method: (§1) In the examples below, using the method of S. R. Colby (1967) “Calculating synergistic and antagonistic responses of herbicide combinations”, Weeds 15, p. 22ff., the value E, which is expected if the activity of the individual active compounds is only additive, was calculated: [formula] • where • X=percent activity using active herbicide A at an application rate a; • Y=percent activity using active herbicide B (e.g. mesotrione) at an application rate b; • E=expected activity (in %) by A+B at application rates a+b. If the value found experimentally is higher than the value E calculated according to Colby, a synergistic effect is present. The culture containers used were plastic pots containing loamy sand with approximately 3.0% of humus as substrate. The seeds of the test plants were sown separately for each species. For the post-emergence treatment, the test plants were grown to a plant height of from 3 to 15 cm, depending on the plant habit, and only then treated with the active compounds which had been suspended or emulsified in water. To this end, the test plants were either sown directly, and grown in the same containers, or they were first grown separately as seedlings and transplanted into the test containers a few days prior to treatment. Depending on the species, the plants were kept at 10-25° C. and 20-35° C., respectively. The test period extended over 2 to 4 weeks. During this time, the plants were tended and their response to the individual treatments was evaluated. Evaluation was carried out using a scale from 0 to 100. 100 means no emergence of the plants, or complete destruction of at least the above-ground parts, and 0 means no damage or normal course of growth. A good herbicidal activity is given at values of at least 70, and very good herbicidal activity is given at values of at least 85. Post-Emergence Application of Herbicide A-1 (A-1) and Mesotrione (B) in Greenhouse Trials Herbicide A-1 (342 g/l) and mesotrione (480 g/l) were, together with addition of 0.5 v/v % MSO (methylated sed oil) as adjuvant, formulated in water as distribution medium (water volume 200 l/ha) and sprayed with commercial flat fan nozzles.

Echinochloa crus-galli [1] = experiment: Example 1 post-emergence greenhouse trial, ECHCG; details: growth stage 14, 21 DAT
Method: (§2) In the examples below, using the method of S. R. Colby (1967) “Calculating synergistic and antagonistic responses of herbicide combinations”, Weeds 15, p. 22ff., the value E, which is expected if the activity of the individual active compounds is only additive, was calculated: [formula] • where • X=percent activity using active herbicide A at an application rate a; • Y=percent activity using active herbicide B (e.g. mesotrione) at an application rate b; • E=expected activity (in %) by A+B at application rates a+b. If the value found experimentally is higher than the value E calculated according to Colby, a synergistic effect is present. The culture containers used were plastic pots containing loamy sand with approximately 3.0% of humus as substrate. The seeds of the test plants were sown separately for each species. For the post-emergence treatment, the test plants were grown to a plant height of from 3 to 15 cm, depending on the plant habit, and only then treated with the active compounds which had been suspended or emulsified in water. To this end, the test plants were either sown directly, and grown in the same containers, or they were first grown separately as seedlings and transplanted into the test containers a few days prior to treatment. Depending on the species, the plants were kept at 10-25° C. and 20-35° C., respectively. The test period extended over 2 to 4 weeks. During this time, the plants were tended and their response to the individual treatments was evaluated. Evaluation was carried out using a scale from 0 to 100. 100 means no emergence of the plants, or complete destruction of at least the above-ground parts, and 0 means no damage or normal course of growth. A good herbicidal activity is given at values of at least 70, and very good herbicidal activity is given at values of at least 85. Post-Emergence Application of Herbicide A-1 (A-1) and Mesotrione (B) in Greenhouse Trials Herbicide A-1 (50 g/l) and mesotrione (480 g/l) were, together with addition of 1 v/v % MSO (methylated sed oil) as adjuvant, formulated in water as distribution medium (water volume 200 l/ha) and sprayed with commercial flat fan nozzles.

Alopercurus myosuroides = experiment: Example 1 post-emergence greenhouse trial, ALOMY; details: growth stage 13, 21 DAT, g ai/ha: A-1 4, B 62.5
Method: In the examples below, using the method of S. R. Colby (1967) “Calculating synergistic and antagonistic responses of herbicide combinations”, Weeds 15, p. 22ff., the value E, which is expected if the activity of the individual active compounds is only additive, was calculated: [formula] • where • X=percent activity using active herbicide A at an application rate a; • Y=percent activity using active herbicide B (e.g. mesotrione) at an application rate b; • E=expected activity (in %) by A+B at application rates a+b. If the value found experimentally is higher than the value E calculated according to Colby, a synergistic effect is present. The culture containers used were plastic pots containing loamy sand with approximately 3.0% of humus as substrate. The seeds of the test plants were sown separately for each species. For the post-emergence treatment, the test plants were grown to a plant height of from 3 to 15 cm, depending on the plant habit, and only then treated with the active compounds which had been suspended or emulsified in water. To this end, the test plants were either sown directly, and grown in the same containers, or they were first grown separately as seedlings and transplanted into the test containers a few days prior to treatment. […] During this time, the plants were tended and their response to the individual treatments was evaluated. […]

Echinochloa crus-galli [2] = experiment: Example 3 post-emergence field trial, ECHCG; details: height 15-20 cm
Method: (§3) In the examples below, using the method of S. R. Colby (1967) “Calculating synergistic and antagonistic responses of herbicide combinations”, Weeds 15, p. 22ff., the value E, which is expected if the activity of the individual active compounds is only additive, was calculated: [formula] • where • X=percent activity using active herbicide A at an application rate a; • Y=percent activity using active herbicide B (e.g. mesotrione) at an application rate b; • E=expected activity (in %) by A+B at application rates a+b. If the value found experimentally is higher than the value E calculated according to Colby, a synergistic effect is present. Evaluation was carried out using a scale from 0 to 100. 100 means no emergence of the plants, or complete destruction of at least the above-ground parts, and 0 means no damage or normal course of growth. A good herbicidal activity is given at values of at least 70, and very good herbicidal activity is given at values of at least 85. Post-Emergence Application of Herbicide A-1 (A-1) and Mesotrione (B) in Field Trials Herbicide A-1 (342 g/l) and mesotrione (100 g/l) were, together with addition of 0.5 v/v % MSO (methylated sed oil) as adjuvant, formulated in water as distribution medium (water volume 200 l/ha) and sprayed with commercial flat fan nozzles.

Amaranthus retroflexus = experiment: Example 3 post-emergence field trial, AMARE; details: height 10-12 cm; for % herbicidal activity B / % herbicidal activity A-1: 42 DAT
Method: as §3

Avena fatua = experiment: Example 2 post-emergence greenhouse trial, AVEFA
Method: as §1

Kochia scoparia = experiment: Example 1 post-emergence greenhouse trial, KCHSC; details: growth stage 19, 21 DAT
Method: as §2

[3] = 7 DAT, g ai/ha: A-1 12.5, B 105
[4] = 7 DAT, g ai/ha: A-1 12.5, B 210
[5] = 21 DAT, g ai/ha: A-1 12.5, B 105
[6] = 28 DAT, g ai/ha: A-1 12.5, B 105
[7] = 21 DAT, g ai/ha: A-1 12.5, B 210
[8] = growth stage 11, 7 DAT, g ai/ha: A-1 1, B 50
[9] = growth stage 11, 20 DAT, g ai/ha: A-1 1, B 50
[10] = growth stage 11, 20 DAT, g ai/ha: A-1 1, B 100

CS(=O)(=O)c1ccc(C(=O)C2C(=O)CCCC2=O)c([N+](=O)[O-])c1 [B, mesotrione]
15%: % herbicidal activity (Avena fatua; [8]) | % herbicidal activity (Avena fatua; [9]) | % herbicidal activity (Avena fatua; [10])
60%: % herbicidal activity (Echinochloa crus-galli [2]; [5]) | % herbicidal activity (Echinochloa crus-galli [2]; 21 DAT, g ai/ha: A-1 18, B 105)
80%: % herbicidal activity (Digitaria sanguinalis; g ai/ha: A-1 0.25, B 100) | % herbicidal activity B (Amaranthus retroflexus; B 210 g ai/ha (row with A-1 18))
75%: % herbicidal activity (Kochia scoparia; g ai/ha: A-1 0.5, B 62.5) | % herbicidal activity (Kochia scoparia; g ai/ha: A-1 1, B 62.5)
70%: % herbicidal activity (Digitaria sanguinalis; g ai/ha: A-1 0.25, B 50) | % herbicidal activity (Digitaria sanguinalis; g ai/ha: A-1 0.5, B 50)
50%: % herbicidal activity (Echinochloa crus-galli [2]; [3]) | % herbicidal activity (Echinochloa crus-galli [2]; [4]) | % herbicidal activity (Echinochloa crus-galli [2]; 7 DAT, g ai/ha: A-1 18, B 105) | % herbicidal activity (Echinochloa crus-galli [2]; 7 DAT, g ai/ha: A-1 18, B 210) | % herbicidal activity (Echinochloa crus-galli [2]; [6]) | % herbicidal activity (Echinochloa crus-galli [2]; 28 DAT, g ai/ha: A-1 18, B 105)
0%: % herbicidal activity (Alopercurus myosuroides)
65%: % herbicidal activity (Echinochloa crus-galli [1]; g ai/ha: A-1 1, B 62.5) | % herbicidal activity (Echinochloa crus-galli [1]; g ai/ha: A-1 4, B 62.5) | % herbicidal activity B (Amaranthus retroflexus; B 210 g ai/ha (row with A-1 12.5)) | % herbicidal activity (Amaranthus retroflexus; [3]) | % herbicidal activity (Amaranthus retroflexus; [4]) | % herbicidal activity (Amaranthus retroflexus; 7 DAT, g ai/ha: A-1 18, B 105) | % herbicidal activity (Amaranthus retroflexus; 7 DAT, g ai/ha: A-1 18, B 210) | % herbicidal activity (Amaranthus retroflexus; [7]) | % herbicidal activity (Amaranthus retroflexus; 21 DAT, g ai/ha: A-1 18, B 105) | % herbicidal activity (Amaranthus retroflexus; 21 DAT, g ai/ha: A-1 18, B 210)

CCOC(=O)COc1ccccc1Oc1nc(-n2c(=O)cc(C(F)(F)F)n(C)c2=O)c(F)cc1Cl [A-1, ethyl 2-[2-[[3-chloro-5-fluoro-6-[3-methyl-2,6-dioxo-4-(trifluoromethyl)pyrimidin-1-yl]-2-pyridyl]oxy]phenoxy]acetate]
65%: % herbicidal activity (Kochia scoparia; g ai/ha: A-1 0.5, B 62.5) | % herbicidal activity (Kochia scoparia; g ai/ha: A-1 1, B 62.5)
85%: % herbicidal activity (Alopercurus myosuroides) | % herbicidal activity A-1 (Amaranthus retroflexus; A-1 18 g ai/ha) | % herbicidal activity (Amaranthus retroflexus; [3])
35%: % herbicidal activity (Avena fatua; [9]) | % herbicidal activity (Avena fatua; [10])
30%: % herbicidal activity (Digitaria sanguinalis; g ai/ha: A-1 0.25, B 50) | % herbicidal activity (Digitaria sanguinalis; g ai/ha: A-1 0.25, B 100) | % herbicidal activity (Echinochloa crus-galli [2]; [3]) | % herbicidal activity (Echinochloa crus-galli [2]; 7 DAT, g ai/ha: A-1 18, B 105) | % herbicidal activity (Echinochloa crus-galli [2]; 7 DAT, g ai/ha: A-1 18, B 210) | % herbicidal activity (Echinochloa crus-galli [2]; [5]) | % herbicidal activity (Echinochloa crus-galli [2]; 21 DAT, g ai/ha: A-1 18, B 105) | % herbicidal activity (Echinochloa crus-galli [2]; 28 DAT, g ai/ha: A-1 18, B 105)
70%: % herbicidal activity (Avena fatua; [8])
75%: % herbicidal activity (Amaranthus retroflexus; 21 DAT, g ai/ha: A-1 18, B 210)
90%: % herbicidal activity (Echinochloa crus-galli [1]; g ai/ha: A-1 1, B 62.5) | % herbicidal activity (Echinochloa crus-galli [1]; g ai/ha: A-1 4, B 62.5) | % herbicidal activity (Amaranthus retroflexus; 7 DAT, g ai/ha: A-1 18, B 210)
93%: % herbicidal activity (Amaranthus retroflexus; 7 DAT, g ai/ha: A-1 18, B 105)
80%: % herbicidal activity (Digitaria sanguinalis; g ai/ha: A-1 0.5, B 50) | % herbicidal activity A-1 (Amaranthus retroflexus; A-1 12.5 g ai/ha) | % herbicidal activity (Amaranthus retroflexus; [4]) | % herbicidal activity (Amaranthus retroflexus; [7]) | % herbicidal activity (Amaranthus retroflexus; 21 DAT, g ai/ha: A-1 18, B 105)
20%: % herbicidal activity (Echinochloa crus-galli [2]; [4]) | % herbicidal activity (Echinochloa crus-galli [2]; [6])
